{
  "source": "patent US11448643B2",
  "about": "“Methods to specifically profile protease activity at lymph nodes” (Massachusetts Institute of Technology, priority 2016, dated 2022)",
  "key": {"[1]": {"test_system": "metalloproteases in the LN", "settings": "mice vaccinated with amph-EGP plus lipo-CpG and boosted; urine collected 3 hours after injection; ELISA; FIG. 6", "method": "Mice were injected subcutaneously and urine for analysis was collected 3 h post-administration.\nMice were later boosted to engage both innate and adaptive immunity. Subsequently, mice were administered a LN-targeting pro-diagnostic reagent comprising a LN-specific enzyme susceptible domain (e.g., protease substrate). Cleavage of the pro-diagnostic reagent by metalloproteases in the LN results in production of signature molecules (ligand encoded tags) that are released into the urine of the subject (e.g., mouse). Urine was collected from the mice 3 hours after injection. Reporter signal was quantified by ELISA."}, "[2]": {"test_system": "homogenized lymph nodes from vaccinated mice", "assay": "Ex vivo peptide screen: cleavage of fluorogenic protease substrates by homogenized lymph nodes from vaccinated vs control mice", "format": "biochemical", "settings": "58 fluorogenic substrates; 384 well plates; fluorescence over several hours; FIG. 7", "description": "Substrate cleavage of 58 peptides was measured. Signal reported is the fold difference in cleavage between vaccinated mice and PBS-injected mice.\nMice were vaccinated in the same manner as described above. Lymph nodes from vaccinated or non-vaccinated mice were harvested. The harvested lymph nodes were homogenized and added to the 58 fluorogenic protease substrates (SEQ ID NOs: 2-59) in 384 well plates. Fluorescent signal was monitored over the period of several hours for each substrate in the well plates. Fluorescence of reporter molecules in lymph nodes of vaccinated mice was compared to non-vaccinated mice (injected with PBS) and reported as the fold difference in cleavage of each substrate between vaccinated and control mice. […] The substrate used urinary monitoring experiment described above is referred to as Q7 (PLGVRGK; SEQ ID NO: 76)."}},
  "note": "Square brackets hold non-standard residues; d marks the D form. Ends that are not written are not given here. Pip = O=C(O)[C@@H]1CCCCN1",
  "data": [
    {"substance": "Albumin-GPLGVRGKGK(Biotin)eGvndneeGffsarK(FAM) [Albumin-B7]", "values": [
      {"measurement": "urinary reporter signal in vaccinated mice compared to PBS-injected mice", "setting": "[1]", "result": "significantly increased"}
    ]},
    {"substance": "GGVPRG (also: fluorogenic labels) [PQ12]", "values": [
      {"measurement": "rank of substrate cleavage (fold difference vaccinated vs control mice)", "setting": "[2]", "result": "two highest cleaved substrates"}
    ]},
    {"substance": "f(Pip)KSGGG ([dF][Pip]KSGGG; also: fluorogenic labels) [Q10, fluorogenic protease substrate, f is D-Phe, Pip is pipecolic acid]", "values": [
      {"measurement": "rank of substrate cleavage (fold difference vaccinated vs control mice)", "setting": "[2]", "result": "two highest cleaved substrates"}
    ]}
  ]
}
